{"source": "ChEMBL document CHEMBL6178002", "about": "“Identification of a RANKL/TNF-α Dual-Inhibitor as a Potential Disease-Modifying Agent for the Treatment of Knee Osteoarthritis” (J Med Chem, 2025)", "key": {"[1]": {"system": "Bone marrow macrophage", "test": "Inhibition of RANKL/M-CSF-induced osteoclastogenesis in bone marrow macrophage cells (unknown origin) assessed as decrease in NFATC1 mRNA level incubated for 48 hrs by RT-qPCR analysis", "type": "functional, cell-based", "conditions": "dose <= 5.0 µM"}, "[2]": {"system": "RAW264.7", "test": "Anti-inflammatory activity in LPS-stimulated mouse RAW264.7 cells assessed as decrease in IL-6 level at 10 uM preincubated for 24 hrs followed by LPS addition measured after 2 hrs by RT-qPCR analysis", "type": "functional, cell-based", "conditions": "time 26.0 hrs"}, "[3]": {"system": "Bone marrow macrophage", "test": "Inhibition of RANKL/M-CSF-induced osteoclastogenesis in bone marrow macrophage cells (unknown origin) assessed as decrease in cathepsin K level at 1 uM by Western blot analysis", "type": "functional, cell-based", "conditions": "time <= 5.0 day"}, "[4]": {"system": "Bone marrow macrophage", "test": "Inhibition of RANKL/M-CSF-induced osteoclastogenesis in bone marrow macrophage cells (unknown origin) assessed as decrease in TRAP level at 1 uM by Western blot analysis", "type": "functional, cell-based", "conditions": "time <= 5.0 day"}, "[5]": {"test": "AUC (0 to t) in male Sprague-Dawley rat at 1 mg/kg, iv measured for 0.25 to 24 hrs", "type": "ADME, organism-based", "conditions": "in vivo, time 0.25-24 hrs"}, "[6]": {"system": "Bone marrow macrophage", "test": "Inhibition of RANKL/M-CSF-induced osteoclastogenesis in bone marrow macrophage cells (unknown origin) assessed as decrease in c-Fos mRNA level at 1 uM by RT-qPCR analysis", "type": "functional, cell-based", "conditions": "time <= 5.0 day"}, "[7]": {"test": "Volume of distribution at steady state in male Sprague-Dawley rat at 1 mg/kg, iv measured for 0.25 to 24 hrs", "type": "ADME, organism-based", "conditions": "in vivo, time 0.25-24 hrs, read-out: Vdss"}, "[8]": {"system": "Bone marrow cell", "test": "Inhibition of RANKL/M-CSF-induced osteoclastogenesis in male C57/BL6 mouse bone marrow cells assessed as decrease in F-actin loop formation incubated for 5 to 7 days by rhodamine phalloidin/DAPI staining based analysis", "type": "functional", "conditions": "dose <= 1.0 µM, time 5-7 day"}, "[9]": {"system": "Primary chondrocyte", "test": "Anti-inflammatory activity in IL-1beta-treated C57/BL6 mouse primary chondrocytes assessed as decrease in MMP-3 mRNA level at 10 uM incubated for 24 hrs by RT-qPCR analysis", "type": "functional, cell-based"}, "[10]": {"species": "Rattus norvegicus", "test": "Anti-inflammatory activity in male Sprague-Dawley rat model of ACLT-induced osteoarthritis assessed as reduction in OA-induced pain at 50 to 100 ug, IART treated weekly once for 8 weeks by hot-plate test", "type": "functional, organism-based", "conditions": "dose 50-100 µg"}, "[11]": {"system": "Bone marrow macrophage", "test": "Inhibition of RANKL/M-CSF-induced osteoclastogenesis in bone marrow macrophage cells (unknown origin) assessed as decrease in TRAP mRNA level at 1 uM by RT-qPCR analysis", "type": "functional, cell-based", "conditions": "time <= 5.0 day"}, "[12]": {"system": "Bone marrow macrophage", "test": "Inhibition of RANKL/M-CSF-induced osteoclastogenesis in bone marrow macrophage cells (unknown origin) assessed as decrease in cathepsin K mRNA level at 1 uM by RT-qPCR analysis", "type": "functional, cell-based", "conditions": "time <= 5.0 day"}, "[13]": {"target": "T1, Tumor necrosis factor ligand superfamily member 11 (Homo sapiens, UniProt O14788)", "T1 sequence (O14788 whole entry)": "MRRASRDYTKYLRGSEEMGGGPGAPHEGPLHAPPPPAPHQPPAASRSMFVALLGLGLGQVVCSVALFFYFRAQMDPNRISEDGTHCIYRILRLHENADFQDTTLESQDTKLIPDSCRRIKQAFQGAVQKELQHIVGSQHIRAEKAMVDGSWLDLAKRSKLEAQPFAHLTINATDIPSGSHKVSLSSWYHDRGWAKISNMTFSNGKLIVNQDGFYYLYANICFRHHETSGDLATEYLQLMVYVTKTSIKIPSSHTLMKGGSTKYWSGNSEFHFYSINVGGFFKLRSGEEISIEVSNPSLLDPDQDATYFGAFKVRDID", "test": "Binding affinity to CM5 chip-immobilized human RANKL assessed as dissociation constant by SPR analysis"}, "[14]": {"test": "Inhibition of RANKL/M-CSF-induced osteoclastogenesis in male C57/BL6 mouse bone marrow cells at 0.1 uM incubated for 5 to 7 days by TRAP staining based analysis relative to control", "type": "functional", "conditions": "C57/BL6, Bone marrow cell, time 5-7 day"}, "[15]": {"system": "Bone marrow macrophage", "test": "Inhibition of RANKL/M-CSF-induced osteoclastogenesis in bone marrow macrophage cells (unknown origin) assessed as decrease in NFATC1 level at 1 uM by Western blot analysis", "type": "functional, cell-based", "conditions": "time <= 5.0 day"}, "[16]": {"system": "Primary chondrocyte", "test": "Anti-inflammatory activity in IL-1beta-treated C57/BL6 mouse primary chondrocytes assessed as increase in collagen II mRNA level at 10 uM incubated for 24 hrs by RT-qPCR analysis", "type": "functional, cell-based"}, "[17]": {"system": "RAW264.7", "test": "Anti-inflammatory activity in LPS-stimulated mouse RAW264.7 cells assessed as decrease in TNF-alpha level at 10 uM preincubated for 24 hrs followed by LPS addition measured after 2 hrs by RT-qPCR analysis", "type": "functional, cell-based", "conditions": "time 26.0 hrs"}, "[18]": {"test": "(§1) Inhibition of RANKL/M-CSF-induced osteoclastogenesis in male C57/BL6 mouse bone marrow cells incubated for 5 to 7 days by TRAP staining based analysis", "type": "functional", "conditions": "bone marrow cell"}, "[19]": {"system": "Bone marrow cell", "test": "as §1", "type": "functional", "conditions": "dose <= 5.0 µM, time 5-7 day"}, "[20]": {"species": "Rattus norvegicus", "test": "Anti-inflammatory activity in male Sprague-Dawley rat model of ACLT-induced osteoarthritis assessed as increase in BMD level at 50 to 100 ug, IART treated weekly once for 8 weeks by micro-CT analysis", "type": "functional, organism-based", "conditions": "dose 50-100 µg"}}, "note": "Calls of active or inactive are those of the source. No cut-off for these calls is given here.", "data": [{"smiles": "Cc1cccc(C)c1NC(=O)[C@@H]1Cc2c([nH]c3ccccc23)C2(CN(c3ccccc3)C2)N1", "values": [{"measurement": "inhibition", "setting": "[1]", "result": "Dose-dependent-effect"}, {"measurement": "Activity", "setting": "[2]", "result": "Active"}, {"measurement": "inhibition", "setting": "[3]", "result": "Time-dependent-effect"}, {"measurement": "inhibition", "setting": "[4]", "result": "Time-dependent-effect"}, {"measurement": "AUC(0-t)", "setting": "[5]", "result": 227, "unit": "ng·h/mL"}, {"measurement": "inhibition", "setting": "[6]", "result": "Time-dependent-effect"}, {"measurement": "Vd", "setting": "[7]", "result": 4.91, "unit": "L/kg"}, {"measurement": "inhibition", "setting": "[8]", "result": "Dose-dependent-effect"}, {"measurement": "Activity", "setting": "[9]", "result": "Active"}, {"measurement": "Activity", "setting": "[10]", "result": "Active"}, {"measurement": "inhibition", "setting": "[11]", "result": "Time-dependent-effect"}, {"measurement": "inhibition", "setting": "[12]", "result": "Time-dependent-effect"}, {"measurement": "Kd", "setting": "[13]", "result": 3980, "unit": "nM"}, {"measurement": "inhibition at 0.1 µM", "setting": "[14]", "result": 59.7, "unit": "%"}, {"measurement": "inhibition", "setting": "[15]", "result": "Time-dependent-effect"}, {"measurement": "Activity", "setting": "[16]", "result": "Active"}, {"measurement": "Activity", "setting": "[17]", "result": "Active"}, {"measurement": "IC50", "setting": "[18]", "result": 109, "unit": "nM"}, {"measurement": "inhibition", "setting": "[19]", "result": "Dose-dependent-effect"}, {"measurement": "Activity", "setting": "[20]", "result": "Active"}]}]}
